Data from US10238624B2, “Composition for activating longevity genes, containing kojic acid derivative as active ingredient” (AMOREPACIFIC CORPORATION, priority 2015, dated 2019).

Legend:
Format in all cases: cell-based
ERCC8 mRNA [1] = assay: Relative expression of ERCC8 mRNA in fibroblasts (TaqMan RT-PCR); conditions: normal human fibroblasts, 10 ppm, 37° C., 24 hours; control = 1.0
Protocol: (§1) In order to investigate the effect of the kojic acid derivative according to the present disclosure on the activation of longevity genes, the effect of kojyl methylenedioxycinnamate on the activation of Sirt-1, Klotho, XPD and ERCC8 was compared with that of retinol using normal human keratinocytes (NHKs) and normal human fibroblasts (NHFs).
(§2) Specifically, after treating the keratinocytes (NHKs) and fibroblasts (NHFs) with kojyl methylenedioxycinnamate or retinol at 10 ppm and incubating them at 37° C. for 24 hours, the relative expression of Sirt-1, Klotho, XPD and ERCC8 mRNAs was compared by isolating the total RNAs from the cells. The NHFs were purchased from Lonza (Allendale, N.J., USA) and incubated at 37° C. for 24 hours using DMEM after transferring 2×10^5 cells onto a 60-mm dish. After discarding the medium, the cells were transferred to a fresh tissue culture flask. […]
(§3) The total RNAs were isolated using TRIzol™ (Invitrogen, Carlsbad, Calif., USA) according to the manufacturer's instructions. RNA concentration was measured spectrophotometrically and RNA integrity was measured using BioAnalyzer 2100 (Agilent Technologies, Santa Clara, Calif., USA). […] Target gene expression level was measured by quantitative real-time TaqMan RT-PCR (7500Fast, Applied Biosystems, Foster City, Calif., USA). […]

Klotho mRNA [2] = assay: Relative expression of Klotho mRNA in fibroblasts (TaqMan RT-PCR); conditions: normal human fibroblasts, 10 ppm, 37° C., 24 hours; control = 1.0
Protocol: as §1, §2, §3

Sirt-1 mRNA [3] = assay: Relative expression of Sirt-1 mRNA in keratinocytes (TaqMan RT-PCR); conditions: normal human keratinocytes, 10 ppm, 37° C., 24 hours; control = 1.0
Protocol: as §1, §2, §3

ERCC8 mRNA [4] = assay: Relative expression of ERCC8 mRNA in keratinocytes (TaqMan RT-PCR); conditions: normal human keratinocytes, 10 ppm, 37° C., 24 hours; control = 1.0
Protocol: as §1, §2, §3

XPD mRNA [5] = assay: Relative expression of XPD mRNA in keratinocytes (TaqMan RT-PCR); conditions: normal human keratinocytes, 10 ppm, 37° C., 24 hours; control = 1.0
Protocol: as §1, §2, §3

Sirt-1 mRNA [6] = assay: Relative expression of Sirt-1 mRNA in fibroblasts (TaqMan RT-PCR); conditions: normal human fibroblasts, 10 ppm, 37° C., 24 hours; control = 1.0
Protocol: as §1, §2, §3

Klotho mRNA [7] = assay: Relative expression of Klotho mRNA in keratinocytes (TaqMan RT-PCR); conditions: normal human keratinocytes, 10 ppm, 37° C., 24 hours; control = 1.0
Protocol: as §1, §2, §3

FoxO3a = FoxO3a activation by nuclear translocation rate in human MNT1 melanoma cells (DAPI/anti-FoxO3a confocal microscopy); conditions: 48 hours; for nuclear translocation rate: control 13.2%
Protocol: In order to investigate the effect of the kojic acid derivative according to the present disclosure on the activation of longevity genes, the effect of the kojyl methylenedioxycinnamate seletinoid G on the activation of the FoxO3a gene was investigated by measuring nuclear translocation rate using human MNT1 melanoma cells purchased from Lonza.
The degree of FoxO3a activation was evaluated based on violet fluorescence resulting from the overlapping of red and blue fluorescence. • Primary antibody: anti-FoxO3a (1:200), 4° C., overnight. • Secondary antibody: Alexa Fluor 555-conjugated goat (1:5000), room temperature, 1 hour.

XPD mRNA [8] = assay: Relative expression of XPD mRNA in fibroblasts (TaqMan RT-PCR); conditions: normal human fibroblasts, 10 ppm, 37° C., 24 hours; control = 1.0
Protocol: as §1, §2, §3

| SMILES | relative expression of ERCC8 mRNA (ERCC8 mRNA [1]) | relative expression of Klotho mRNA (Klotho mRNA [2]) | relative expression of Sirt-1 mRNA (Sirt-1 mRNA [3]) | relative expression of ERCC8 mRNA (ERCC8 mRNA [4]) | relative expression of XPD mRNA (XPD mRNA [5]) | relative expression of Sirt-1 mRNA (Sirt-1 mRNA [6]) | relative expression of Klotho mRNA (Klotho mRNA [7]) | activation of the longevity gene FoxO3a (in words) (FoxO3a; 15-450 ppm) | nuclear translocation rate (FoxO3a; 15 ppm) [%] | nuclear translocation rate (FoxO3a; 150 ppm) [%] | nuclear translocation rate (FoxO3a; 450 ppm) [%] | relative expression of XPD mRNA (XPD mRNA [8]) |
| --- | --- | --- | --- | --- | --- | --- | --- | --- | --- | --- | --- | --- |
| O=C(/C=C/c1ccc2c(c1)OCO2)OCc1cc(=O)c(O)co1 [Kojyl methylenedioxycinnamate, kojyl methylenedioxycinnamate] | 1.4 | 2.5 | 5.2 | 1.9 | 8.5 | 2.4 | 9.1 | remarkably activates | 35.7 | 86.3 | 66.9 | 3.5 |
| CC1=C(/C=C/C(C)=C/C=C/C(C)=C/CO)C(C)(C)CCC1 [Retinol, retinol, reference compound] | 1.3 | 2.2 | 4.6 | 1.5 | 8.2 | 2.5 | 8.9 |  |  |  |  | 2.5 |
